Measurements as given in patent US4753953A, “Pyridonecarboxylic acid derivatives and antibacterial pharmaceutical compositions thereof” (priority 1985, dated 1988).
In brackets after ≈: the same amount, converted by molar mass. Where two headings read alike, the source gives them in different places.

How the values were obtained:
[1] = system: C. ramosum; assay: MIC, in vitro antibacterial activity (standard strains); type: cell-based; details: Thomasclavelia ramosa; 10^6 cells/ml; Gram +; read-out: MIC
[2] = system: B. distasonis 8503; assay: as above; type: cell-based; details: Parabacteroides distasonis, 8503; 10^6 cells/ml; Gram -; read-out: MIC
[3] = system: P. aeruginosa IFO 12689; assay: as above; type: cell-based, Pseudomonas aeruginosa; details: Pseudomonas aeruginosa, IFO12689; 10^6 cells/ml; Gram -; read-out: MIC
[4] = system: B. fragilis 0558; assay: as above; type: cell-based, Bacteroides fragilis; details: Bacteroides fragilis, 0558; 10^6 cells/ml; Gram -; read-out: MIC
[5] = system: Morganella morganii IID 602; assay: as above; type: cell-based; details: Morganella morganii, IID602; 10^6 cells/ml; Gram -; read-out: MIC
[6] = system: Bacillus subtilis PCI 219; assay: as above; type: cell-based; details: Bacillus subtilis, PCI219; 10^6 cells/ml; Gram +; read-out: MIC
[7] = system: S. pneumoniae IID 552; assay: as above; type: cell-based; details: Streptococcus pneumoniae, IID552; 10^6 cells/ml; Gram +; read-out: MIC
[8] = system: E. faecalis IID 682; assay: as above; type: cell-based; details: Enterococcus faecalis, IID682; 10^6 cells/ml; Gram +; read-out: MIC
[9] = system: F. necrophorum S-45; assay: as above; type: cell-based; details: Fusobacterium necrophorum, S45; 10^6 cells/ml; Gram -; read-out: MIC
[10] = system: C. perfringens KYA 13123; assay: microbe, parasite or virus in culture; type: cell-based; details: Clostridium perfringens, KYA13123
[11] = system: P. mirabilis IID 994; assay: MIC, in vitro antibacterial activity (standard strains); type: cell-based; details: Proteus mirabilis, IID994; 10^6 cells/ml; Gram -; read-out: MIC
[12] = system: Clostridium difficile I-E; assay: as above; type: cell-based; details: Clostridioides difficile; 10^6 cells/ml; Gram +
[13] = system: Proteus vulgaris IFO 3167; assay: as above; type: cell-based; details: Proteus vulgaris, IFO3167
[14] = system: Serratia marcescens IID 618; assay: as above; type: cell-based; details: Serratia marcescens, IID618; 10^6 cells/ml; Gram -; read-out: MIC
[15] = system: Alcaligenes faecalis 0114002; assay: as above; type: cell-based; details: Alcaligenes faecalis, 0114002; 10^6 cells/ml; Gram -; read-out: MIC
[16] = system: Pst. micros UPI 5464-1; assay: as above; type: cell-based; details: Parvimonas micra, UPI54641; 10^6 cells/ml; Gram +; read-out: MIC
[17] = system: Eubacterium lentum GAI 5242; assay: as above; type: cell-based; details: Eggerthella lenta, GAI5242; 10^6 cells/ml; Gram +; read-out: MIC
[18] = system: Klebsiella pneumoniae KY(GN)6445; assay: as above; type: cell-based; details: Klebsiella pneumoniae
[19] = system: K. pneumoniae 1-220S; assay: as above; type: cell-based, Klebsiella pneumoniae; details: Klebsiella pneumoniae, 1220S; 10^6 cells/ml; Gram -; read-out: MIC
[20] = system: S. aureus Smith; assay: as above; type: cell-based, Staphylococcus aureus; details: Staphylococcus aureus; 10^6 cells/ml; Gram +; read-out: MIC
[21] = system: B. vulgatus KYA 29327; assay: as above; type: cell-based; details: Phocaeicola vulgatus, KYA29327; 10^6 cells/ml; Gram -; read-out: MIC
[22] = system: S. aureus IID 670 (Terajima); assay: as above; type: cell-based, Staphylococcus aureus; details: Staphylococcus aureus, IID670; 10^6 cells/ml; Gram +; read-out: MIC
[23] = system: E. coli ATCC 10536; assay: as above; type: cell-based, Escherichia coli; details: Escherichia coli, ATCC10536; 10^6 cells/ml; Gram -; read-out: MIC
[24] = system: P. cepacia GIFU 518; assay: as above; type: cell-based; details: Burkholderia cepacia, GIFU518
[25] = system: Staphylococcus aureus 209 P; assay: as above; type: cell-based; details: Staphylococcus aureus, 209P; 10^6 cells/ml; Gram +; read-out: MIC
[26] = system: Veillonella parvula KYA 10790; assay: as above; type: cell-based; details: Veillonella parvula, KYA10790; 10^6 cells/ml; Gram -; read-out: MIC
[27] = system: S. pyogenes IID 692; assay: as above; type: cell-based, Streptococcus pyogenes; details: Streptococcus pyogenes, IID692; 10^6 cells/ml; Gram +; read-out: MIC
[28] = system: Bacteroides fragilis GM 7000; assay: as above; type: cell-based; details: Bacteroides fragilis, GM7000; 10^6 cells/ml; Gram -; read-out: MIC
[29] = system: B. thetaiotaomicron (0661); assay: as above; type: cell-based; details: Bacteroides thetaiotaomicron; 10^6 cells/ml; Gram -; read-out: MIC
[30] = system: P. aeruginosa IID 1210; assay: as above; type: cell-based, Pseudomonas aeruginosa; details: Pseudomonas aeruginosa, IID1210; 10^6 cells/ml; Gram -; read-out: MIC
[31] = system: Salmonella enteritidis IID 604; assay: as above; type: cell-based; details: Salmonella enterica; 10^6 cells/ml; Gram -; read-out: MIC
[32] = system: Peptostreptococcus anaerobius KYA 27337; assay: as above; type: cell-based; details: Peptostreptococcus anaerobius, KYA27337; 10^6 cells/ml; Gram +; read-out: MIC
[33] = 10^6 cells/ml, Gram -, read-out: MIC

SMILES	MIC [1] [µg/mL]	MIC [2] [µg/mL]	MIC [3] [µg/mL]	MIC [4] [µg/mL]	MIC [5] [µg/mL]	MIC [6] [µg/mL]	MIC [9] [µg/mL]	MIC [10] [µg/mL]	MIC [11] [µg/mL]	MIC [12] [µg/mL]	MIC [14] [µg/mL]	MIC [15] [µg/mL]	MIC [16] [µg/mL]	MIC [17] [µg/mL]	MIC [19] [µg/mL]	MIC [20] [µg/mL]	MIC [21] [µg/mL]	MIC [22] [µg/mL]	MIC [23] [µg/mL]	MIC [25] [µg/mL]	also measured
C[C@H]1CN(c2c(F)cc3c(=O)c(C(=O)O)cn(C4CC4)c3c2Cl)C[C@H]1N (relative stereo) [Example 16, 7-(cis-3-Amino-4-methyl-1-pyrrolidinyl)-8-chloro-1-cyclopropyl-6-fluoro-1,4-dihydro-4-oxo-3-quinolinecarboxylic acid]	0.39 (≈ 1.03 µM)	0.2 (≈ 0.527 µM)	0.39 (≈ 1.03 µM)	0.05 (≈ 0.132 µM)	0.05 (≈ 0.132 µM)	0.0125 (≈ 0.0329 µM)	0.05 (≈ 0.132 µM)	0.05 (≈ 0.132 µM)	0.025 (≈ 0.0658 µM)	0.39	0.05 (≈ 0.132 µM)	0.1 (≈ 0.263 µM)	0.1 (≈ 0.263 µM)	0.05 (≈ 0.132 µM)	0.05 (≈ 0.132 µM)	0.025 (≈ 0.0658 µM)	0.05 (≈ 0.132 µM)	0.05 (≈ 0.132 µM)	0.0125 (≈ 0.0329 µM)	0.05 (≈ 0.132 µM)	MIC [7]: 0.1 µg/mL (≈ 0.263 µM); MIC [8]: 0.1 µg/mL (≈ 0.263 µM); MIC [13, 33]: 0.0125 µg/mL (≈ 0.0329 µM); MIC [18, 33]: 0.025 µg/mL (≈ 0.0658 µM); MIC [24]: 0.39 µg/mL (≈ 1.03 µM); MIC [26]: 0.1 µg/mL (≈ 0.263 µM); MIC [27]: 0.1 µg/mL (≈ 0.263 µM); MIC [28]: 0.05 µg/mL (≈ 0.132 µM); MIC [29]: 0.1 µg/mL (≈ 0.263 µM); MIC [30]: 0.39 µg/mL (≈ 1.03 µM); MIC [31]: 0.025 µg/mL (≈ 0.0658 µM); MIC [32]: 0.1 µg/mL (≈ 0.263 µM)
C[C@@H]1CN(c2c(F)cc3c(=O)c(C(=O)O)cn(C4CC4)c3c2Cl)C[C@H]1N (relative stereo) [Example 17, 7-(trans-3-Amino-4-methyl-1-pyrrolidinyl)-8-chloro-1-cyclopropyl-6-fluoro-1,4-dihydro-4-oxo-3-quinolinecarboxylic acid]	0.39 (≈ 1.03 µM)	0.1 (≈ 0.263 µM)	0.39 (≈ 1.03 µM)	0.05 (≈ 0.132 µM)	0.05 (≈ 0.132 µM)	0.0125 (≈ 0.0329 µM)	0.05 (≈ 0.132 µM)	0.05 (≈ 0.132 µM)	0.025 (≈ 0.0658 µM)	0.39	0.05 (≈ 0.132 µM)	0.05 (≈ 0.132 µM)	0.05 (≈ 0.132 µM)	0.05 (≈ 0.132 µM)	0.0125 (≈ 0.0329 µM)	0.025 (≈ 0.0658 µM)	0.05 (≈ 0.132 µM)	0.05 (≈ 0.132 µM)	0.0063 (≈ 0.0166 µM)	0.025 (≈ 0.0658 µM)	MIC [13, 33]: 0.0125 µg/mL (≈ 0.0329 µM); MIC [18, 33]: 0.0125 µg/mL (≈ 0.0329 µM); MIC [24]: 0.2 µg/mL (≈ 0.527 µM); MIC [26]: 0.05 µg/mL (≈ 0.132 µM); MIC [28]: 0.05 µg/mL (≈ 0.132 µM); MIC [29]: 0.1 µg/mL (≈ 0.263 µM); MIC [30]: 0.39 µg/mL (≈ 1.03 µM); MIC [31]: 0.025 µg/mL (≈ 0.0658 µM); MIC [32]: 0.1 µg/mL (≈ 0.263 µM)
C[C@@H]1CN(c2c(F)cc3c(=O)c(C(=O)O)cn(C4CC4)c3c2F)C[C@H]1N (relative stereo) [Example 18, 7-(trans-3-Amino-4-methyl-1-pyrrolidinyl)-1-cyclopropyl-6,8-difluoro-1,4-dihydro-4-oxo-3-quinolinecarboxylic acid]	0.78 (≈ 2.15 µM)	0.39 (≈ 1.07 µM)	0.39 (≈ 1.07 µM)	0.2 (≈ 0.55 µM)	0.05 (≈ 0.138 µM)	0.025 (≈ 0.0688 µM)	0.2 (≈ 0.55 µM)	0.1 (≈ 0.275 µM)	0.025 (≈ 0.0688 µM)	1.56	0.05 (≈ 0.138 µM)	0.1 (≈ 0.275 µM)	0.1 (≈ 0.275 µM)	0.1 (≈ 0.275 µM)	0.025 (≈ 0.0688 µM)	0.05 (≈ 0.138 µM)	0.39 (≈ 1.07 µM)	0.2 (≈ 0.55 µM)	0.05 (≈ 0.138 µM)	0.05 (≈ 0.138 µM)	MIC [7]: 0.05 µg/mL (≈ 0.138 µM); MIC [8]: 0.1 µg/mL (≈ 0.275 µM); MIC [13]: 0.0125 µg/mL (≈ 0.0344 µM); MIC [18]: 0.0125 µg/mL (≈ 0.0344 µM); MIC [24]: 0.1 µg/mL (≈ 0.275 µM); MIC [26]: 0.1 µg/mL (≈ 0.275 µM); MIC [27]: 0.1 µg/mL (≈ 0.275 µM); MIC [28]: 0.2 µg/mL (≈ 0.55 µM); MIC [29]: 0.39 µg/mL (≈ 1.07 µM); MIC [30]: 0.78 µg/mL (≈ 2.15 µM); MIC [31]: 0.025 µg/mL (≈ 0.0688 µM); MIC [32]: 0.2 µg/mL (≈ 0.55 µM)
C[C@H]1CN(c2c(F)cc3c(=O)c(C(=O)O)cn(C4CC4)c3c2F)C[C@H]1N.Cl (relative stereo) [Example 20, 7-(cis-3-Amino-4-methyl-1-pyrrolidinyl)-1-cyclopropyl-6,8-difluoro-1,4-dihydro-4-oxo-3-quinolinecarboxylic acid hydrochloride]	1.56	0.78	0.39	0.39	0.05	0.025	0.39	0.2	0.05	1.56	0.05	0.39	0.2	0.2	0.05	0.05	0.39	0.05	0.025	0.05	MIC [7]: 0.2 µg/mL; MIC [8]: 0.2 µg/mL; MIC [13, 33]: 0.025 µg/mL; MIC [18, 33]: 0.025 µg/mL; MIC [24, 33]: 0.39 µg/mL; MIC [26]: 0.2 µg/mL; MIC [27]: 0.39 µg/mL; MIC [28]: 0.39 µg/mL; MIC [29]: 0.78 µg/mL; MIC [30]: 0.78 µg/mL; MIC [31]: 0.05 µg/mL; MIC [32]: 0.39 µg/mL
